Laboratory results from patent publication EP4656642A1, “ESTROGEN RECEPTOR PROTEOLYSIS TARGETING CHIMERA COMPOUND AND USE THEREOF” (GAN & LEE PHARM CO., LTD, priority 2023, dated 2024).
Where “and” joins values, the source holds several entries; their conditions need not be identical. Equal entries are not always repeated.

Tests used:
Type in all cases: cell-based
ERα [1] = target: T1, ERα (Homo sapiens, UniProt P03372); assay: Degradation of ERα in T-47D cells (immunoblotting, 4 h); design: host or cells: T-47D
T1 sequence (P03372 1-595): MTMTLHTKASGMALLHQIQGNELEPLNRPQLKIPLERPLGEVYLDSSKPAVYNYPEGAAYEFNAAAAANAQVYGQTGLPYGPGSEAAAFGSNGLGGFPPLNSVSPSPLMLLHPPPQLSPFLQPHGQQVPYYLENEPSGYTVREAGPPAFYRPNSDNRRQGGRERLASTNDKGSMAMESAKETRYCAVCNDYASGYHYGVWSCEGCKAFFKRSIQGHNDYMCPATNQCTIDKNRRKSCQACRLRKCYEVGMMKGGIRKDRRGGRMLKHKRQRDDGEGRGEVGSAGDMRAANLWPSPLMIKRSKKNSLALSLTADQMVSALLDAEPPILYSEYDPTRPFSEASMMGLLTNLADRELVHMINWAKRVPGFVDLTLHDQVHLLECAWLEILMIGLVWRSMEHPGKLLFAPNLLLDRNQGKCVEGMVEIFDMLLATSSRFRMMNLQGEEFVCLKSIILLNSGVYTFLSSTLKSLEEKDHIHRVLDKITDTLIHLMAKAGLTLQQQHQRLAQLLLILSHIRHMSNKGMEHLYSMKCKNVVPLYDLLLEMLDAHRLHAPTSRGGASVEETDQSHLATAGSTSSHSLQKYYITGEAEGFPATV
Method in brief: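 ERα protein levels were assessed by immunoblot of RIPA lysates (with protease inhibitor) after 4 h exposure at 37°C. Compound was added in DMSO to T-47D cells at final concentrations of 0.15-1000 nM.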

T-47D cells = assay: Inhibition of cell proliferation in T-47D cells (CCK-8, 6 days); settings: 6 days of treatment
Excerpt: Test Example 2: Inhibitory effect of the PROTAC compounds provided in the present disclosure on cell proliferation in T-47D cells (source ATCC)
The complete medium required for T-47D cells was 1640 ( ATCC, Product number: A10491-01) basal medium containing 10% fetal bovine serum. T-47D cells were inoculated in 96-well plates at a density of 3,000 cells/well, and different concentrations of the PROTAC compounds 1-55 provided in the examples of the present disclosure and a positive control sample ARV-471 (source: Innochem) were prepared to treat cells, and the cells were treated at 37°C in a cell culture incubator with 5% CO2 for 6 days. Cell viability was detected using a CCK-8 kit (Beyotime, Product number: C0040) according to the manufacturer's instructions. […] Table 2 IC50 values for inhibition of the proliferation of T-47D cells by the PROTAC compounds provided by the present disclosure and the positive control sample

ERα [2] = target: T1, ERα; assay: Degradation of ERα in MCF-7 cells (immunoblotting, 4 h)
Method in brief: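 Degradation rate reflects ERα band intensity, corrected to an internal reference protein, relative to control. Values come from Western blotting of lysates from MCF-7 cells exposed 4 h at 37°C to compounds at final concentrations of 0.15-1000nM.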

MCF-7 cells = assay: Inhibition of cell proliferation of MCF-7 cells (CCK-8, 9 days)
Method in brief: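 Read-out was CCK-8 viability after 9-day continuous exposure (37°C, 5% CO2) of MCF-7 cells plated at 800/well in 10% FBS DMEM across several compound concentrations. Values are proliferation IC50s.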

[3] = treated for 9 days, CCK-8 kit (Table 6)
[4] = 9 days of treatment, CCK-8, Table 5

Row | Degradation rate (%) of ERα in T-47D cells (ERα [1]; 1nM compound) [%] | Degradation rate (%) of ERα in T-47D cells (ERα [1]; 10nM compound) [%] | IC50 (T-47D cells; Table 3) [nM] | Degradation rate (%) of ERα in MCF-7 cells (ERα [2]; 1nM compound) [%] | Degradation rate (%) of ERα in MCF-7 cells (ERα [2]; 10nM compound) [%] | IC50 (MCF-7 cells; [3]) | IC50 (T-47D cells; Table 2) [nM] | IC50 (MCF-7 cells; [4]) [nM] | SMILES
1 |  |  | 3 |  |  | 320 nM and 214 nM |  |  | O=C1CCC(N2Cc3c(ccc4c3OCC43CCN(C4CC5(CCC6(CC5)CN(C5CCN(c7ccc([C@@H]8c9ccc(O)cc9CC[C@@H]8c8ccccc8)cc7)CC5)C6)C4)CC3)C2=O)C(=O)N1 (stereo partly shown) [K16]
2 | 22 | 54 |  |  |  |  | 14 |  | O=C1CCC(N2C(=O)c3cc4c(cc3C2=O)OC2(CC4)CN(C3CC4(CCN(c5ccc([C@@H]6c7ccc(O)cc7CC[C@@H]6c6ccccc6)cc5)CC4)C3)C2)C(=O)N1 (stereo partly shown) [M10]
3 | 13 | 27 |  |  |  |  | 1.6 | 70 | O=C1CCC(N2Cc3cc4c(cc3C2=O)CCC2(CN(C3CC5(CCN(c6ccc([C@@H]7c8ccc(O)cc8CC[C@@H]7c7ccccc7)cc6)CC5)C3)C2)O4)C(=O)N1 (stereo partly shown) [M13]
4 | 56 | 67 | 1.72 | 2 | 13 |  |  |  | N#CC1(CN2CCC3(CC2)COc2c3ccc3c2CN(C2CCC(=O)NC2=O)C3=O)CCN(CC2CCN(c3ccc([C@@H]4c5ccc(O)cc5CC[C@@H]4c4ccccc4)cc3)CC2)CC1 (stereo partly shown) [N7]
5 | -3 | 19 | 8.52 |  |  | 24.3 nM |  |  | CC1CC(N2CCC3(CC2)COc2c3ccc3c2CN(C2CCC(=O)NC2=O)C3=O)CCN1C1CCN(c2ccc(C3c4ccc(O)cc4CCC3c3ccccc3)cc2)CC1 (stereo not shown) [K22]
6 | -29 | -17 | 30 |  |  | 23 nM |  |  | O=C1CCC(N2C(=O)c3cc4c(cc3C2=O)OC2(CC4)CN(CC3CCC4(CC3)CN(c3ccc([C@@H]5c6ccc(O)cc6CC[C@@H]5c5ccccc5)cc3)C4)C2)C(=O)N1 (stereo partly shown) [M14]
7 |  |  |  |  |  |  | 180 |  | O=C1CCC(N2C(=O)c3cc4c(cc3C2=O)OCC2(CCN(C3CC5(C3)CN(c3ccc(C6c7ccc(O)cc7CCC6c6ccccc6)cc3)C5)CC2)C4)C(=O)N1 (stereo not shown) [O2]
8 | 58 | 79 | 1.18 | 54 | 68 |  |  |  | CC1(C(=O)N2CCC(N3CCC4(CC3)COc3c4ccc4c3CN(C3CCC(=O)NC3=O)C4=O)CC2)CCN(c2ccc([C@@H]3c4ccc(O)cc4CC[C@@H]3c3ccccc3)cc2)CC1 (stereo partly shown) [N1]
9 | 17 | 56 |  |  |  |  | 1 | 20 | O=C1CCC(N2Cc3cc4c(cc3C2=O)OCC2(CCN(C3CC5(CCN(c6ccc([C@@H]7c8ccc(O)cc8CC[C@@H]7c7ccccc7)cc6)CC5)C3)CC2)O4)C(=O)N1 (stereo partly shown) [M11]
10 |  |  | 2 |  |  | 12 nM | 2 | 10 | O=C1CCC(N2Cc3cc4c(cc3C2=O)CCC2(CCN(C3CC5(CCN(c6ccc([C@@H]7c8ccc(O)cc8CC[C@@H]7c7ccccc7)cc6)CC5)C3)CC2)O4)C(=O)N1 (stereo partly shown) [M12]
11 | 35 | 62 | 0.87 | 34 | 55 |  |  |  | O=C1CCC(N2Cc3c(ccc4c3OCC43CCN(CC4(F)CCN(CC5CCN(c6ccc([C@@H]7c8ccc(O)cc8CC[C@@H]7c7ccccc7)cc6)CC5)CC4)CC3)C2=O)C(=O)N1 (stereo partly shown) [N6]
12 |  |  |  |  |  |  | 101 |  | O=C1CCC(N2C(=O)c3cc4c(cc3C2=O)OC2(CC4)CN(C3CC4(CCN(c5ccc(C6c7ccc(O)cc7CCC6c6ccccc6)cc5)CC4)C3)C2)C(=O)N1 (stereo not shown) [M9]
13 | 63 | 73 |  | 48 | 55 | 7.34 nM |  |  | O=C1CCC(N2Cc3c(ccc4c3OCC43CCN(C4CCN(C(=O)C5CCN(c6ccc(C7c8ccc(O)cc8CCC7c7ccccc7)cc6)CC5)C(C(=O)N5CCCC5)C4)CC3)C2=O)C(=O)N1 (stereo not shown) [K30]
14 | 15 | 69 |  | 30 | 56 | 59 nM |  |  | O=C1CCC(N2Cc3cc4c(cc3C2=O)OC2(CC4)CN(CC3CCN(C(=O)C4CCN(c5ccc([C@@H]6c7ccc(O)cc7CC[C@@H]6c6ccccc6)cc5)CC4)CC3)C2)C(=O)N1 (stereo partly shown) [K39]
15 | 37 | 74 |  | 21 | 59 | 75.2 nM |  |  | CN(C(=O)CN1CC2(CCc3cc4c(cc3O2)CN(C2CCC(=O)NC2=O)C4=O)C1)C1CCC2(CC1)CN(c1ccc([C@@H]3c4ccc(O)cc4CC[C@@H]3c3ccccc3)cc1)C2 (stereo partly shown) [K45]

The remaining lines, values behind:

Row | SMILES | Degradation rate (%) of ERα in T-47D cells (ERα [1]; 1nM compound) [%] | Degradation rate (%) of ERα in T-47D cells (ERα [1]; 10nM compound) [%] | IC50 (T-47D cells; Table 3) [nM] | Degradation rate (%) of ERα in MCF-7 cells (ERα [2]; 1nM compound) [%] | Degradation rate (%) of ERα in MCF-7 cells (ERα [2]; 10nM compound) [%] | IC50 (MCF-7 cells; [3]) | IC50 (T-47D cells; Table 2) [nM] | IC50 (MCF-7 cells; [4]) [nM]
16 | C[C@@H]1Cc2c([nH]c3ccccc23)[C@@H](c2c(F)cc(N3CC4(CCC(N5CCC6(CC5)COc5c6ccc6c5CN(C5CCC(=O)NC5=O)C6=O)CC4)C3)cc2F)N1CC(F)F (stereo partly shown) [A104] | 35 | 72 | 17.1 | 15 | 70 | 30.3 nM |  | 
17 | CCN(C1CCN(c2ccc([C@@H]3c4ccc(O)cc4CC[C@@H]3c3ccccc3)cc2)CC1)[C@H]1CC[C@@H](C(=O)N2CCC3(CC2)COc2c3ccc3c2CN(C2CCC(=O)NC2=O)C3=O)CC1 (stereo partly shown) [B43] | 57 | 80 | 4.04 | 54 | 62 | 232 nM |  | 
18 | O=C1CCC(N2C(=O)c3cc4c(cc3C2=O)C2(CCN(CC3CN(c5ccc([C@@H]6c7ccc(O)cc7CC[C@@H]6c6ccccc6)cc5)C3)CC2)CO4)C(=O)N1 (stereo partly shown) [B3] |  | -18 |  |  | -14 |  | 100 | 
19 | O=C1CCC(N2Cc3c(ccc4c3OCC43CCN(C4CC5(CCC6(CCN(c7ccc([C@@H]8c9ccc(O)cc9CC[C@@H]8c8ccccc8)cc7)CC6)CC5)C4)CC3)C2=O)C(=O)N1 (stereo partly shown) [B23] |  |  | 10.2 | 17 | 40 | 417 nM |  | 
20 | O=C1CCC(N2C(=O)c3cc4c(cc3C2=O)OC2(CC4)CCN(CC3CCN(c4ccc(C5c6ccc(O)cc6CCC5c5ccccc5)cc4)C3)CC2)C(=O)N1 (stereo not shown) [A9] |  | -25 |  |  | -24 |  | 24 | 
21 | O=C1CCC(N2C(=O)c3cc4c(cc3C2=O)C2(CCN(C3CCN(c5ccc(C6c7ccc(O)cc7CCC6c6ccccc6)cc5)CC3)CC2)CO4)C(=O)N1 (stereo not shown) [A16] |  | -22 |  |  | -5 |  | 91 | 
22 | O=C1CCC(N2Cc3cc4c(cc3C2=O)CCC2(CN(CC3CCC5(CC3)CCN(c3ccc([C@@H]6c7ccc(O)cc7CC[C@@H]6c6ccccc6)cc3)CC5)C2)O4)C(=O)N1 (stereo partly shown) [A3 8] |  |  | 15 |  |  |  |  | 
23 | O=C1CCC(N2C(=O)c3cc4c(cc3C2=O)C2(CCN(CC3CCN(c5ccc(C6c7ccc(O)cc7CCC6c6ccccc6)cc5)C3)CC2)CO4)C(=O)N1 (stereo not shown) [B1] |  | -15 |  |  | -35 |  | 38 | 
24 | O=C1CCC(N2C(=O)c3cc4c(cc3C2=O)C2(CCN(C3CC5(CCN(c6ccc(C7c8ccc(O)cc8CCC7c7ccccc7)cc6)CC5)C3)CC2)CO4)C(=O)N1 (stereo not shown) [A19] |  | 18 |  |  | 18 |  | 20 | 
25 | O=C1CCC(N2Cc3cc4c(cc3C2=O)CCC2(CN(C3CCN(C(=O)c5ccc([C@@H]6c7ccc(O)cc7CC[C@@H]6c6ccccc6)cc5)CC3)C2)O4)C(=O)N1 (stereo partly shown) [H10] | 0 | 36 |  | -28 | -4 | 9280 nM |  | 
